This is an account of results in patent publication US11447466B2, “Substituted indole compounds useful as inhibitors of TLR7/8/9” (BRISTOL-MYERS SQUIBB COMPANY, priority 2017, dated 2022).

Common to all, as to type: cell-based
In one test the target is T1, human TLR7 (Homo sapiens, UniProt Q9NYK1).
T1 construct: host or cells: HEK-Blue cells
T1 sequence (Q9NYK1 27-1049): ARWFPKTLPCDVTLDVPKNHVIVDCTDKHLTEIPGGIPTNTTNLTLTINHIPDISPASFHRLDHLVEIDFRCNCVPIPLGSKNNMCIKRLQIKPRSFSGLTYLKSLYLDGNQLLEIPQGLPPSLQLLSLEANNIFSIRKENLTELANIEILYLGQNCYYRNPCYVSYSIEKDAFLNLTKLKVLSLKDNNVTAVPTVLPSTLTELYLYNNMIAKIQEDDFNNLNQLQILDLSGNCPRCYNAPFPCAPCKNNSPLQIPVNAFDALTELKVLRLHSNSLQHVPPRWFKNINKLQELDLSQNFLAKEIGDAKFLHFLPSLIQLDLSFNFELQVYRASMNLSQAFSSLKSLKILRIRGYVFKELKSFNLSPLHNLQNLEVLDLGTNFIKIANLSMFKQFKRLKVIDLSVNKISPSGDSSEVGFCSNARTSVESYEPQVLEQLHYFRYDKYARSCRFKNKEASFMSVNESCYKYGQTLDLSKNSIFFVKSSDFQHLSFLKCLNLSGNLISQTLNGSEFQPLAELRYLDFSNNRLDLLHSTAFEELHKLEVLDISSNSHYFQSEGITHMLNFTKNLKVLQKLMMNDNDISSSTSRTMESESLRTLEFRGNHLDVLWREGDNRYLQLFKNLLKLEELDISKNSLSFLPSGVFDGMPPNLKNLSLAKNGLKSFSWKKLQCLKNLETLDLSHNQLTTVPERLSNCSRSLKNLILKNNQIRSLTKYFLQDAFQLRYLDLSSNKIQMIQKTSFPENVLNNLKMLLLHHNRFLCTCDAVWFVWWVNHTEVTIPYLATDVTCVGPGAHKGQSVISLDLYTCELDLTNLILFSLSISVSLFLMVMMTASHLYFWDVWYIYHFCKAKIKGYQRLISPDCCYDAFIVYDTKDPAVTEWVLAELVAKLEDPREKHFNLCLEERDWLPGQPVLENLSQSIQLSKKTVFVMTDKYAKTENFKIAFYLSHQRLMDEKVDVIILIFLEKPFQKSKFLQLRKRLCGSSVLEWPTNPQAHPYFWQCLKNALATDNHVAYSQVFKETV
The experiment in a line: TLR7 inhibition reporter assay (HEK-Blue SEAP reporter, gardiquimod stimulation). Conditions: HEK-Blue cells overexpressing human TLR7, SEAP reporter, gardiquimod 7.5 μM, 22 hour incubation. How it is done:
(§1) TLR7/8/9 Inhibition Reporter Assays
(§2) HEK-Blue™-cells (Invivogen) overexpressing human TLR7, TLR8 or TLR9 receptors were used for screening inhibitors of these receptors using an inducible SEAP (secreted embryonic alkaline phosphatase) reporter gene under the control of the IFN-β minimal promoter fused to five NF-κB and AP-1-binding sites. Briefly, cells are seeded into Greiner 384 well plates (15000 cells per well for TLR7, 20,000 for TLR8 and 25,000 for TLR9) and then treated with test compounds in DMSO to yield a final dose response concentration range of 0.05 nM-50 μM. After a 30 minute compound pre-treatment at room temperature, the cells are then stimulated with a TLR7 ligand (gardiquimod at a final concentration of 7.5 μM), TLR8 ligand (R848 at a final concentration of 15.9 μM) or TLR9 ligand (ODN2006 at a final concentration of 5 nM) to activate NF-κB and AP-1 which induce the production of SEAP. After a 22 hour incubation at 37° C., 5% CO2, SEAP levels are determined with the addition of HEK-Blue™ Detection reagent (Invivogen), a cell culture medium that allows for detection of SEAP, according to manufacturer's specifications. The percent inhibition is determined as the % reduction in the HEK-Blue signal present in wells treated with agonist plus DMSO alone compared to wells treated with a known inhibitor.
A general note: A reporter such as luciferase makes a cellular process visible.

For a further test, the target named is T2, human TLR8 (Homo sapiens, UniProt Q9NR97).
T2 construct: host or cells: HEK-Blue cells
T2 sequence (Q9NR97 27-1041): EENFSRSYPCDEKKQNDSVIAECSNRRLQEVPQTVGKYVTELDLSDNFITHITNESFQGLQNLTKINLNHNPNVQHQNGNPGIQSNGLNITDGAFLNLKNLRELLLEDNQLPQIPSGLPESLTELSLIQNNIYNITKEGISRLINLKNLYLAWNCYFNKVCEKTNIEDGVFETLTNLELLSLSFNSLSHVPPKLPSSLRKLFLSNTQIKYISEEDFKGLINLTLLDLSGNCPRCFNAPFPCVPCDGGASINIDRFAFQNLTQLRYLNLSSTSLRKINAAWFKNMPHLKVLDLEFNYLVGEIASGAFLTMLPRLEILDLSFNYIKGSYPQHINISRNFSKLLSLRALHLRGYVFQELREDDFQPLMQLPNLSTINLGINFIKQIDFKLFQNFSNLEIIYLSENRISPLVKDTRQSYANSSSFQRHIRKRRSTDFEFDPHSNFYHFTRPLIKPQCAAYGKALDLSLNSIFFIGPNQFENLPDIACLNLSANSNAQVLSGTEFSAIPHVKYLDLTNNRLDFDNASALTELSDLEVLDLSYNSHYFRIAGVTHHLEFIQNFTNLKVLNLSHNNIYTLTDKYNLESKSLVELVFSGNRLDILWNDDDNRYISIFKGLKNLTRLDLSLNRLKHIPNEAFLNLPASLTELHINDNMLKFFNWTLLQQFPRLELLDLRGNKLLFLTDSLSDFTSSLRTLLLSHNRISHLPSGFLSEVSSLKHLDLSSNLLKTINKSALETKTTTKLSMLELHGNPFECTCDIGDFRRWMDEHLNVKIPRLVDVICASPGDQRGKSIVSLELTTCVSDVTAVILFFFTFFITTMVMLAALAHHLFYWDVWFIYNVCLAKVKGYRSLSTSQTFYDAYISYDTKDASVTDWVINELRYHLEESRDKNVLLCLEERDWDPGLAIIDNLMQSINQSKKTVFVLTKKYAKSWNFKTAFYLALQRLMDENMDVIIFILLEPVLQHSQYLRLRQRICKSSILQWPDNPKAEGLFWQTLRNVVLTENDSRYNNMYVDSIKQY
The experiment in a line: TLR8 inhibition reporter assay (HEK-Blue SEAP reporter, R848 stimulation). The conditions noted are these: HEK-Blue cells overexpressing human TLR8, SEAP reporter, R848 15.9 μM, 22 hour incubation. The procedure:
as §1, §2

The next test concerns the target T3, human TLR9 (Homo sapiens, UniProt Q9NR96).
T3 construct: host or cells: HEK-Blue cells
T3 sequence (Q9NR96 26-1032): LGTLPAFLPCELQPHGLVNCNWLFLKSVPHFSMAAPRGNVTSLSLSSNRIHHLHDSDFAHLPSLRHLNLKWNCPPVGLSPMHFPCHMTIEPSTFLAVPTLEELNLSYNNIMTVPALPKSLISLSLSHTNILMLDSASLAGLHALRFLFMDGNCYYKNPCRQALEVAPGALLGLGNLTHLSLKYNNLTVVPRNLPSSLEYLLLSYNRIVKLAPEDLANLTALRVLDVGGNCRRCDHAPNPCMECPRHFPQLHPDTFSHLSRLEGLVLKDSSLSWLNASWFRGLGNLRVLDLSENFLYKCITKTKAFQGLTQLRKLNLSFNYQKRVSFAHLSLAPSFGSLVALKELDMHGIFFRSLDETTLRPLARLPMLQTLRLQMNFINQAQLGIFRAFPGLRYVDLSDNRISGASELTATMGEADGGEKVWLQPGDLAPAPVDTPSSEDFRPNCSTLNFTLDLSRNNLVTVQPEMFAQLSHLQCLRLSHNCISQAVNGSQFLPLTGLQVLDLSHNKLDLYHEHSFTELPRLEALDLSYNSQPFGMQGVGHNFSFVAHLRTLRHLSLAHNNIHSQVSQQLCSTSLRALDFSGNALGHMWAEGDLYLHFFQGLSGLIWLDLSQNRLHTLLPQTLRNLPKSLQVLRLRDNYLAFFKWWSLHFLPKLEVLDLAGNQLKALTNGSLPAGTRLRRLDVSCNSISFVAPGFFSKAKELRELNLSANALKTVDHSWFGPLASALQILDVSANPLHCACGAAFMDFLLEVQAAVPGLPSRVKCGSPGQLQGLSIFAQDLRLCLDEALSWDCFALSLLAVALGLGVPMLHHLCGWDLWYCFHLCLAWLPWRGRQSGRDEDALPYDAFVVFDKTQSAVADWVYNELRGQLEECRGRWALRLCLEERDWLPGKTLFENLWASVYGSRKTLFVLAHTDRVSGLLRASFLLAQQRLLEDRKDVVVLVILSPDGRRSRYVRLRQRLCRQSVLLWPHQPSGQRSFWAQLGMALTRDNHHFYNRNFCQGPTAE
The experiment in a line: TLR9 inhibition reporter assay (HEK-Blue SEAP reporter, ODN2006 stimulation). Conditions: HEK-Blue cells overexpressing human TLR9, SEAP reporter, ODN2006 5 nM, 22 hour incubation. How it is done:
as §1, §2

As for `Cc1c(-c2[nH]c3ccc(C4CCN(CCCC(F)(F)F)CC4)cc3c2C(C)C)cn(C)c(=O)c1Cl` [Example 105, 3-chloro-5-(3-isopropyl-5-(1-(4,4,4-trifluorobutyl)piperidin-4-yl)-1H-indol-2-yl)-1,4-dimethylpyridin-2(1H)-one], the IC50 (usually the concentration that inhibits the measured activity by half) is 5.1 nM against human TLR7, 10.7 nM at human TLR8 and 5.52 µM against human TLR9.

As for `Cc1cc(-c2[nH]c3ccc(C4CCN(Cc5cnn(C)c5)CC4)cc3c2C(C)C)cn(C)c1=O` [Example 196, 5-(3-isopropyl-5-(1-((1-methyl-1H-pyrazol-4-yl)methyl)piperidin-4-yl)-1H-indol-2-yl)-1,3-dimethylpyridin-2(1H)-one], the IC50 was determined as 3 nM at human TLR7, 2.4 nM at human TLR8 and 4.98 µM on human TLR9.

For `COc1cc(-c2[nH]c3ccc(C4CCN(C5COC5)CC4)cc3c2C(C)C)c(C)n(C)c1=O` [Example 217, 5-(3-isopropyl-5-(1-(oxetan-3-yl)piperidin-4-yl)-1H-indol-2-yl)-3-methoxy-1,6-dimethylpyridin-2(1H)-one], the IC50 turned out to be 659 nM on human TLR7, 163 nM at human TLR8 and 10.9 µM at human TLR9.

For `Cc1cc(-c2[nH]c3ccc(C4CCN(C5CCCOC5)CC4)cc3c2C(C)C)nn(C)c1=O` (centres unmarked) [Example 188, 6-(3-isopropyl-5-(1-(tetrahydro-2H-pyran-3-yl)piperidin-4-yl)-1H-indol-2-yl)-2,4-dimethylpyridazin-3(2H)-one], the IC50 turned out to be 14.1 nM on human TLR7, 11.1 nM on human TLR8 and 0.526 µM against human TLR9.

Consider `CNC(=O)c1cccc(-c2cc(-c3[nH]c4ccc(C5CCNCC5)cc4c3C(C)C)cn(C)c2=O)c1` [Example 59, 3-(5-(3-isopropyl-5-(piperidin-4-yl)-1H-indol-2-yl)-1-methyl-2-oxo-1,2-dihydropyridin-3-yl)-N-methylbenzamide], for which the IC50 was 46.6 nM against human TLR7, 270 nM against human TLR8 and 5.85 µM against human TLR9.

Consider `Cc1c(-c2[nH]c3ccc(C4CCN(CC(=O)N(C)C)CC4)cc3c2C(C)C)nn(C)c(=O)c1C` [Example 130, 2-(4-(3-isopropyl-2-(1,4,5-trimethyl-6-oxo-1,6-dihydropyridazin-3-yl)-1H-indol-5-yl)piperidin-1-yl)-N,N-dimethylacetamide], for which the IC50 against human TLR7 amounted to 290 nM; against human TLR8, 25.9 nM; on human TLR9 it was 8.51 µM.

Turning to `Cc1cc(-c2[nH]c3ccc(C4CCN(CC(=O)NC[C@@H](C)O)CC4)cc3c2C(C)C)cn(C)c1=O` [Example 125, (R)-2-(4-(2-(1,5-dimethyl-6-oxo-1,6-dihydropyridin-3-yl)-3-isopropyl-1H-indol-5-yl)piperidin-1-yl)-N-(2-hydroxypropyl)acetamide], the IC50 against human TLR8 is 289 nM; on human TLR9 it was at least 50 µM.

For the compound `CC(C)c1c(-c2cc(CCC3CC3)c(=O)n(C)c2)[nH]c2ccc(C3CCNCC3)cc12` [Example 62, 3-(2-cyclopropylethyl)-5-(3-isopropyl-5-(piperidin-4-yl)-1H-indol-2-yl)-1-methylpyridin-2(1H)-one], the IC50 on human TLR9 was at least 50 µM.

At human TLR9, `CC(C)c1c(-c2cc(C(=O)N(C)C)c(=O)n(C)c2)[nH]c2ccc(C3CCNCC3)cc12` [Example 63, 5-(3-isopropyl-5-(piperidin-4-yl)-1H-indol-2-yl)-N,N,1-trimethyl-2-oxo-1,2-dihydropyridine-3-carboxamide] returned an IC50 of at least 50 µM.

As to `CCCN1CCC(c2ccc3[nH]c(-c4cc(N5CCCCC5)c(=O)n(C)c4)c(C(C)C)c3c2)CC1` [Example 173, 5-(3-isopropyl-5-(1-propylpiperidin-4-yl)-1H-indol-2-yl)-1-methyl-3-(piperidin-1-yl) pyridin-2(1H)-one], the IC50 was 983 nM on human TLR8 and 6.61 µM against human TLR9.

In the case of `Cc1cc(-c2[nH]c3ccc(C4CCN(CC(=O)NC[C@H](C)O)CC4)cc3c2C(C)C)cn(C)c1=O` [Example 126, (S)-2-(4-(2-(1,5-dimethyl-6-oxo-1,6-dihydropyridin-3-yl)-3-isopropyl-1H-indol-5-yl)piperidin-1-yl)-N-(2-hydroxypropyl)acetamide], the IC50 on human TLR8 was 631 nM; at human TLR9, at least 50 µM.
